These are literature values, as cited in patent publication US9125929B2, “Trauma therapy” (Hibernation Therapeutics, A KF LLC, priority 2006, dated 2015).

One series deals with T1, NK(2) receptor (Homo sapiens, UniProt P21452).
T1 sequence (P21452 1-398): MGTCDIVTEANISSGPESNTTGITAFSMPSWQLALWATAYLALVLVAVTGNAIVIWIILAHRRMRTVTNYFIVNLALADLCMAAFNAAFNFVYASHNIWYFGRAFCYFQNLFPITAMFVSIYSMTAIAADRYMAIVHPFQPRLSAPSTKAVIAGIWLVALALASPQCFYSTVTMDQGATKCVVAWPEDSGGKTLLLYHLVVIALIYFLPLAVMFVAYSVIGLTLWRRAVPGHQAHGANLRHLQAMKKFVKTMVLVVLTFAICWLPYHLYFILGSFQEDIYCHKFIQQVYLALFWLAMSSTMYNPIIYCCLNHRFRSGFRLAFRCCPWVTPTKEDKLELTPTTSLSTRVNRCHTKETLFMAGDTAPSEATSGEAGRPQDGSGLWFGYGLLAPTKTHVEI
Particulars: NK(1) over NK(2).

The next series addresses human NK(1) receptor (Homo sapiens, UniProt P25103). Particulars: read-out: K(i) for the human NK(1) receptor.
A further series addresses T2, NK(3) receptor (Homo sapiens, UniProt P29371).
T2 sequence (P29371 1-465): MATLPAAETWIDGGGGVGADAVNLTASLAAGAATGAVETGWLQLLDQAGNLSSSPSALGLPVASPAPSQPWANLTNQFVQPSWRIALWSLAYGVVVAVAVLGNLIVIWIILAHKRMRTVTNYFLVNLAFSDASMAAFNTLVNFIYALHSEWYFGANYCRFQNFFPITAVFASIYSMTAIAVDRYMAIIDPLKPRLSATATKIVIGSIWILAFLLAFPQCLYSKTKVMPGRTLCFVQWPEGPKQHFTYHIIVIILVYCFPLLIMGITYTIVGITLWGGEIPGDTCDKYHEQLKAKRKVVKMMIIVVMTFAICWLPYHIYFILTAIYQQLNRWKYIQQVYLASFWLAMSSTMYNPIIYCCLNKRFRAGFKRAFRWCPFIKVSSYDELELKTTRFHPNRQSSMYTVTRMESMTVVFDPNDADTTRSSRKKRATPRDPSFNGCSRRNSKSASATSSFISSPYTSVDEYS
Particulars: NK(1) over NK(3).

For series [1] the following is noted: orally and/or intravenous, 10, 25, 50 and 100 mg/kg body weight.
The conditions of series [2]: 400 mg daily tablets.

The structures appear in SMILES notation.

Chain of human NK(1) receptor (P25103 whole entry): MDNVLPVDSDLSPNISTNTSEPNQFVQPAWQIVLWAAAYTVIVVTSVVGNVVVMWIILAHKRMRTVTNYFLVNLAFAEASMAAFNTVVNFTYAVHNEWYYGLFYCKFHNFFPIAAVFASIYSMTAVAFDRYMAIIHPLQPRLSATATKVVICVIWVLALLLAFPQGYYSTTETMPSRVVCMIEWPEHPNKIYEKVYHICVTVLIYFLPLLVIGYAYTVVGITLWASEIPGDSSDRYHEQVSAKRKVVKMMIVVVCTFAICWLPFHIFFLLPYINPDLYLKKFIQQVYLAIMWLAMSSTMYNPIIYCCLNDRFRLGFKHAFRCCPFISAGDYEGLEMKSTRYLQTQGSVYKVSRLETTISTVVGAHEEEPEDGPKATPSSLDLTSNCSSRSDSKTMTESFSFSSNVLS

In the case of `Cc1cccc(C)c1NC(=O)C[C@H]1CCN(C(=O)c2cc(C(F)(F)F)cc(C(F)(F)F)c2)[C@@H](Cc2ccccc2)C1.O=C(O)C[C@H](O)C(=O)O` (relative stereo) [R116301, (2R-trans)-4-[1-[3,5-bis(trifluoromethyl)benzoyl]-2-(phenylmethyl)-4-piperidinyl]-N-(2,6-dimethylphenyl)-1-acetamide(S)-Hydroxybutanedioate], the “selectivity toward NK(2) receptor” value at NK(2) receptor was “over 200 fold”. In addition, the Ki at human NK(1) receptor is 0.45 nM. Besides, at NK(3) receptor, the “selectivity toward NK(3) receptor” value is “over 200 fold”. `NC(=O)c1ncn([C@@H]2O[C@H](CO)[C@@H](O)[C@H]2O)c1N` [Acadesine, 5-amino-4-imidazole carboxamide ribonucleoside]: the safety in humans result in series [1] was “safe”. Turning to `OCCN(CCO)c1nc(N2CCCCC2)c2nc(N(CCO)CCO)nc(N3CCCCC3)c2n1` [Dipyridamole], in series [2], the plasma level result was “about 0.4 microgram/ml” and the “plasma level (concentration)” value was roughly 800 nM. As to `Nc1ncnc2c1ncn2[C@@H]1O[C@H](CO)[C@@H](O)[C@H]1O` [adenosine, 6-amino-9-β-D-ribofuranosyl-9H-purine], the “half life in the blood” value is listed as “about 10 seconds”.
